Assay results: patent publication US11478474B2, “2-(3′-(hydroxymethyl)-1-methyl-5-((5-(2-methyl-4-(oxetan-3-yl)piperazin-1-yl)pyridin-2-yl)amino)-6-oxo-1,6-dihydro-[3,4′-bipyridin]-2′-yl)-7,7-dimethyl-7,8-dihydro-2H-cyclopenta[4,5]pyrrolo[1,2-a]pyrazin-1(6H)-one as a BTK inhibitor” (HUTCHISON MEDIPHARMA LIMITED, priority 2020, dated 2022)

What was measured:
BTK recombinant protein = BTK recombinant protein (Homo sapiens (Human), UniProt Q06187); experiment: Determination of biochemical BTK (Z'-LYTE kinase assay)
Summary of the method: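 Human BTK recombinant kinase (3.32 nM final) was preincubated with compound for 30 min at 4 °C. Reaction ran 1 h at room temperature with Tyr01 FRET peptide (2 μM) and ATP (32 μM); development protease then added. Coumarin 445 nm/fluorescein 520 nm emission ratio (400 nm excitation) gave inhibition across 8 concentrations, 3000–1.37 nM.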

[1] = target: phosphorylated BTK in Ramos cells (Homo sapiens (Human), UniProt Q06187); experiment: Determination of phosphorylated BTK in Ramos cells (BTK phospho-Y223 HTRF); format: cell-based; settings: anti-human IgM + hydrogen peroxide stimulation
Summary of the method: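 Ramos cells starved 2 h in 1% FBS, then treated 1 h with compound (0.00018–3.0 μM, 0.3% DMSO). They were then stimulated 10 min at 37° C. with anti-human IgM (10 μg/mL) plus H2O2 (3.3 mM). Lysates read by BTK phospho-Y223 HTRF (665/615 nm ratio); IC50 fitted from inhibition normalized to stimulated and unstimulated controls.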

Sequence of phosphorylated BTK in Ramos cells (Q06187 whole entry): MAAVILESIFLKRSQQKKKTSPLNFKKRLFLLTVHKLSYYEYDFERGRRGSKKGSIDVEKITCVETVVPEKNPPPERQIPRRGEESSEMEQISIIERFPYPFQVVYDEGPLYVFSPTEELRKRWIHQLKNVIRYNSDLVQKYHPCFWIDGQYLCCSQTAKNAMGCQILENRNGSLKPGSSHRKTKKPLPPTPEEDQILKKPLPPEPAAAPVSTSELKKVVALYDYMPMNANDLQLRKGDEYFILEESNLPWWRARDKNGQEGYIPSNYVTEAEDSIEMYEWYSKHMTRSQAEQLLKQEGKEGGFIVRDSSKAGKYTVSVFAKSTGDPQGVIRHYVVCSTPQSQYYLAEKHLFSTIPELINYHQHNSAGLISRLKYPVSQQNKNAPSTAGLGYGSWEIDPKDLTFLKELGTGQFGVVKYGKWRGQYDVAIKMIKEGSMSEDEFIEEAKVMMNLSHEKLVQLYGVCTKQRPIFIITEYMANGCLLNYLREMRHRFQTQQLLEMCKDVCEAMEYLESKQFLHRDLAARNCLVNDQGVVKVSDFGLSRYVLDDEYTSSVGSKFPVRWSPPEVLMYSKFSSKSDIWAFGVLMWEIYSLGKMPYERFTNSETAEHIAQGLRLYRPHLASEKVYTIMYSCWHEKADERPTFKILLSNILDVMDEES
Sequence of BTK recombinant protein (Q06187 whole entry): as above

IC50 (BTK recombinant protein) [µM]	IC50 [1] [µM]	SMILES
0.006	0.004	C[C@@H]1c2cc(Nc3cc(-c4ccnc(-n5ccn6c7c(cc6c5=O)CC(C)(C)C7)c4CO)cn(C)c3=O)nn2CCN1C1COC1 [Compound 137]
0.039	0.011	COC1CN(c2ccc(Nc3cc(-c4ccnc(-n5ncn6c7c(cc6c5=O)CC(C)(C)C7)c4CO)cn(C)c3=O)nc2)C1 [Compound 139]
< 0.001	0.011	Cn1cc(-c2ccnc(-n3ccn4c5c(cc4c3=O)CC(C)(C)C5)c2CO)cc(Nc2ccc(C3CN(C4COC4)C3)cn2)c1=O [Compound 140]
0.014	0.013	Cn1cc(-c2ccnc(-n3ncn4c5c(cc4c3=O)CC(C)(C)C5)c2CO)cc(Nc2ccc(C3CN(C4COC4)C3)cn2)c1=O [Compound 141]
0.051	0.06	Cn1cc(-c2ccnc(-n3ccn4c5c(cc4c3=O)CCC5)c2CO)cc(Nc2cc3n(n2)CCN(C#N)C3)c1=O [Compound 142]
0.004	0.005	Cn1cc(-c2ccnc(-n3ncn4c5c(cc4c3=O)CC(C)(C)C5)c2CO)cc(Nc2cc3n(n2)CCN(C#N)C3)c1=O [Compound 143]
0.019	0.008	C[C@H]1CN(C2COC2)CCN1c1ccc(Nc2cc(-c3ccnc(-n4ncn5c(c(F)c6ccccc65)c4=O)c3CO)cn(C)c2=O)nc1 [Compound 149]
0.012	0.012	C[C@H]1CN(C2COC2)CCN1c1ccc(Nc2cc(-c3ccnc(-n4ncn5c6c(cc5c4=O)CCCCC6)c3CO)cn(C)c2=O)nc1 [Compound 150]
0.002	0.028	C[C@H]1CN(C2COC2)CCN1c1ccc(Nc2cc(-c3ccnc(-n4ncn5c(cc6ccccc65)c4=O)c3CO)cn(C)c2=O)nc1 [Compound 151]
0.008	0.013	COCc1cc(Nc2cc(-c3ccnc(-n4ccn5c6c(cc5c4=O)CC(C)(C)C6)c3CO)cn(C)c2=O)nn1C [Compound 154]
0.006	0.012	Cn1cc(-c2ccnc(-n3ncn4c5c(cc4c3=O)CC(C)(C)C5)c2CO)cc(Nc2cc3n(n2)CCOC3)c1=O [Compound 156]
0.016	0.025	C[C@H]1CN(C2COC2)CCN1c1ccc(Nc2cc(-c3ccnc(-n4ncn5c6c(cc5c4=O)CCCC6)c3CO)cn(C)c2=O)nc1 [Compound 157]
0.006	0.026	COC1CN(c2ccc(Nc3cc(-c4ccnc(-n5ccn6c7c(cc6c5=O)CC(C)(C)C7)c4CO)cn(C)c3=O)nn2)C1 [Compound 159]
0.004	0.007	C[C@H]1CN(C2COC2)CCN1c1ccc(Nc2cc(-c3ccnc(-n4ccn5c6c(c(F)c5c4=O)CCCC6)c3CO)cn(C)c2=O)nc1 [Compound 161]
0.001	0.006	Cn1cc(-c2ccnc(-n3ccn4c5c(cc4c3=O)CC(C)(C)C5)c2CO)cc(Nc2cc3n(n2)CCOC3)c1=O [Compound 162]
0.008	0.034	COCCN1CCn2nc(Nc3cc(-c4ccnc(-n5ncn6c7c(cc6c5=O)CCCC7)c4CO)cn(C)c3=O)cc2C1 [Compound 163]
0.012	0.023	Cc1nn(-c2nccc(-c3cc(Nc4cc5n(n4)CCN(C4COC4)C5)c(=O)n(C)c3)c2CO)c(=O)c2cc3c(n12)CC(C)(C)C3 [Compound 164]
0.004	0.031	CCN1CCn2nc(Nc3cc(-c4ccnc(-n5ncn6c7c(cc6c5=O)CC(C)(C)C7)c4CO)cn(C)c3=O)cc2C1 [Compound 165]
0.035	0.121	Cn1cc(-c2ccnc(-n3ncn4c5c(cc4c3=O)CCCC5)c2CO)cc(Nc2cc3n(n2)CCN(C2COC2)C3)c1=O [Compound 166]
0.016	0.012	COCCN1CCn2nc(Nc3cc(-c4ccnc(-n5ccn6c7c(c(F)c6c5=O)CCCC7)c4CO)cn(C)c3=O)cc2C1 [Compound 167]
0.028	0.02	COCCN1CCn2nc(Nc3cc(-c4ccnc(-n5ccn6c7c(cc6c5=O)CC(C)C7)c4CO)cn(C)c3=O)cc2C1 (stereo not shown) [Compound 168]
0.06	0.03	COc1ccc(Nc2cc(-c3ccnc(-n4ccn5c6c(cc5c4=O)CC(C)(C)C6)c3CO)cn(C)c2=O)nn1 [Compound 169]
0.018	0.016	Cn1cc(-c2ccnc(-n3ncn4c5c(cc4c3=O)CC(C)(C)C5)c2CO)cc(Nc2cc3n(n2)CCN(C2CCC2)C3)c1=O [Compound 170]
0.013	0.011	Cn1cc(-c2ccnc(-n3ncn4c5c(cc4c3=O)CC(C)(C)C5)c2CO)cc(Nc2cc3n(n2)CCN(C2CC2)C3)c1=O [Compound 171]
0.041	0.011	CCn1cc(Nc2cc(-c3ccnc(-n4ccn5c6c(cc5c4=O)CC(C)(C)C6)c3CO)cn(C)c2=O)cn1 [Compound 172]

IC50 (BTK recombinant protein) [µM]	IC50 [1] [µM]	SMILES
0.08	0.028	CC(C)n1cc(Nc2cc(-c3ccnc(-n4ccn5c6c(cc5c4=O)CC(C)(C)C6)c3CO)cn(C)c2=O)cn1 [Compound 173]
0.002	0.044	CCCn1cc(Nc2cc(-c3ccnc(-n4ccn5c6c(cc5c4=O)CC(C)(C)C6)c3CO)cn(C)c2=O)cn1 [Compound 174]
0.071	0.04	COCCn1cc(Nc2cc(-c3ccnc(-n4ccn5c6c(cc5c4=O)CC(C)(C)C6)c3CO)cn(C)c2=O)cn1 [Compound 175]
0.003	0.016	Cn1cc(-c2ccnc(-n3ccn4c5c(c(F)c4c3=O)CCCC5)c2CO)cc(Nc2cc3n(n2)CCOC3)c1=O [Compound 176]
0.006	0.021	COCCN1CCn2nc(Nc3cc(-c4ccnc(-n5ccn6c(c(F)c7ccccc76)c5=O)c4CO)cn(C)c3=O)cc2C1 [Compound 177]
0.006	0.012	Cn1cc(-c2ccnc(-n3ccn4c(c(F)c5ccccc54)c3=O)c2CO)cc(Nc2cc3n(n2)CCN(C2COC2)C3)c1=O [Compound 178]
0.016	0.084	CCn1cc(Nc2cc(-c3ccnc(-n4ccn5c6c(c(F)c5c4=O)CCCC6)c3CO)cn(C)c2=O)cn1 [Compound 180]
0.012	0.038	CC1Cc2cc3c(=O)n(-c4nccc(-c5cc(Nc6cc7n(n6)CCOC7)c(=O)n(C)c5)c4CO)ccn3c2C1 (stereo not shown) [Compound 181]
0.025	0.067	Cn1cc(-c2ccnc(-n3ccn4c(c(F)c5ccccc54)c3=O)c2CO)cc(Nc2ccc(C3CN(C4COC4)C3)cn2)c1=O [Compound 183]
0.077	0.08	C[C@H]1CN(C2COC2)CCN1c1ccc(Nc2cc(-c3ccnc(-n4cnn5c6c(cc5c4=O)CCCC6)c3CO)cn(C)c2=O)nc1 [Compound 184]
0.013	0.013	C[C@H]1CN(C(CO)CO)CCN1c1ccc(Nc2cc(-c3ccnc(-n4ccn5c6c(cc5c4=O)CC(C)(C)C6)c3CO)cn(C)c2=O)nc1 [Compound 185]
0.014	0.01	C[C@H]1CN(C2COC2)CCN1c1ccc(Nc2cc(-c3ccnc(-n4ncn5c6c(c(F)c5c4=O)CCCC6)c3CO)cn(C)c2=O)nc1 [Compound 186]
0.041	0.039	Cc1ccc2c(c1)cc1c(=O)n(-c3nccc(-c4cc(Nc5ccc(N6CCN(C7COC7)C[C@@H]6C)cn5)c(=O)n(C)c4)c3CO)ccn12 [Compound 188]
0.039	0.051	C[C@H]1COCCN1c1ccc(Nc2cc(-c3ccnc(-n4ccn5c6c(cc5c4=O)CCC6)c3CO)cn(C)c2=O)nc1 [Compound 189]
0.029	0.04	C[C@H]1CN(C2COC2)CCN1c1ccc(Nc2cc(-c3ccnc(-n4cnn5c6c(c(F)c5c4=O)CCCC6)c3CO)cn(C)c2=O)nc1 [Compound 190]
0.011	0.01	Cn1cc(-c2ccnc(-n3ncn4c5c(cc4c3=O)CC(C)(C)C5)c2CO)cc(Nc2ccc(N3CCN(C4COC4)CC3(C)C)cn2)c1=O [Compound 191]
0.009	0.016	Cc1cc(Nc2cc(-c3ccnc(-n4ncn5c6c(cc5c4=O)CC(C)(C)C6)c3CO)cn(C)c2=O)no1 [Compound 192]
0.012	0.006	C[C@@H]1CN(c2ccc(Nc3cc(-c4ccnc(-n5ncn6c7c(cc6c5=O)CC(C)(C)C7)c4CO)cn(C)c3=O)nc2)[C@@H](C)CN1C1COC1 [Compound 193]
0.002	0.007	C[C@H]1COCCN1c1ccc(Nc2cc(-c3ccnc(-n4ncn5c6c(cc5c4=O)CC(C)(C)C6)c3CO)cn(C)c2=O)nc1 [Compound 196]
0.004	0.012	C[C@H]1CN(C2COC2)CCN1c1ccc(Nc2cc(-c3ccnc(-n4ccn5c6c(cc5c4=O)CC(C)(C)[C@@H]6O)c3CO)cn(C)c2=O)nc1 [Compound 198]
0.008	0.025	C[C@H]1CN(C2COC2)CCN1c1ccc(Nc2cc(-c3ccnc(-n4ccn5c6c(cc5c4=O)CC(C)(C)[C@H]6O)c3CO)cn(C)c2=O)nc1 [Compound 199]
0.004	0.021	Cn1cc(-c2ccnc(-n3ccn4c5c(cc4c3=O)CC(C)(C)C5)c2CO)cc(Nc2ccc(C3CCN(C4COC4)CC3)nn2)c1=O [Compound 200]
0.008	0.017	CCn1cc(-c2ccnc(-n3ccn4c5c(cc4c3=O)CC(C)(C)C5)c2CO)cc(Nc2ccc(N3CCN(C4COC4)C[C@@H]3C)cn2)c1=O [Compound 202]
< 0.001	0.007	C[C@H]1COCCN1c1ccc(Nc2cc(-c3ccnc(-n4ccn5c6c(cc5c4=O)CC(C)(C)C6)c3CO)cn(C)c2=O)nn1 [Compound 203]
0.011	0.007	C[C@H]1CN(C2COC2)CCN1c1ccc(Nc2cc(-c3ccnc(-n4ccn5c6c(cc5c4=O)CC(C)(C)C6)c3CO)cn(C)c2=O)nn1 [Compound 204]
